From patent US8415469B2, “Compounds and methods for kinase modulation, and indications therefor” (Plexxikon Inc., priority 2005, dated 2013)

Each compound was assayed against T1, B-Raf V600E (Homo sapiens, UniProt P15056, V600E) (assay: AlphaScreen kinase assay, B-Raf V600E). Settings: read-out: IC50, activity toward kinase B-Raf V600E.
T1 construct: P4254. pFastBacBD-CDC37 BRAF D437-K722-X, V600E; His6 with pFastBac HT leader (TEV site) (N); made in house; host or cells: Sf9 (baculovirus; chaperone CDC37 co-expressed)
Format: biochemical

T1 sequence (P15056 with tags, fused parts or gaps V600E): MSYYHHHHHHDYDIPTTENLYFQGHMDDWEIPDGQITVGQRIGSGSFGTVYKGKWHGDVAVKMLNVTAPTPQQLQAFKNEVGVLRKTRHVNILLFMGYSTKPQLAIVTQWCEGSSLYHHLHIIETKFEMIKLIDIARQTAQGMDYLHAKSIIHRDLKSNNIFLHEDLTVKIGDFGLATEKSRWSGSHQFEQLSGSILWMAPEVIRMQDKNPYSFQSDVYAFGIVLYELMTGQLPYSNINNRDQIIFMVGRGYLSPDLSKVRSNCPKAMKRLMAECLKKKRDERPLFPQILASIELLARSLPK

SMILES | IC50 [µM]
CC(C)(C)OC(=O)Nc1ccc(Cl)c(C(O)c2c[nH]c3ncccc23)c1F (stereo not drawn) [Compound P-1140] | ≤ 10
OCc1cccc(-c2ccnc3[nH]cc(Sc4cc(Cl)cc(Cl)c4)c23)c1 [Compound P-0600] | ≤ 10
Cc1cc(-c2nc(-c3ccnc4[nH]ccc34)no2)n(C(C)(C)C)n1 [Compound P-0893] | ≤ 10
Fc1cc(F)cc(-c2ccnc3[nH]cc(Sc4ccccc4)c23)c1 [Compound P-0311] | ≤ 10
Cc1nc2ccc(Nc3cnc4[nH]ccc4c3)cc2s1 [Compound P-1030] | ≤ 10
Fc1cccc(Nc2cnc3[nH]ccc3c2)c1 [Compound P-1035] | ≤ 10
c1ccc(Cc2nc(-c3ccnc4[nH]ccc34)no2)cc1 [Compound P-0381] | ≤ 10
COc1ccccc1-c1c[nH]c2ncccc12 [Compound P-0358] | ≤ 10
COc1ccc(Cc2nc(-c3ccnc4[nH]ccc34)no2)cc1 [Compound P-0696] | ≤ 10
COc1ccc(OC)c(S(=O)(=O)Nc2ccc(F)c(C(=O)c3c[nH]c4ncccc34)c2F)c1 [Compound P-1131, N-[2,4-Difluoro-3-(1H-pyrrolo[2,3-b]pyridine-3-carbonyl)-phenyl]-2,5-dimethoxy-benzenesulfonamide] | ≤ 10
CCC(C)Cc1c[nH]c2ncccc12 (stereo not drawn) [Compound P-0386] | ≤ 10
FC(F)(F)c1cccc(-c2ccnc3[nH]cc(Sc4cccs4)c23)c1 [Compound P-0651] | ≤ 10
c1cnc2[nH]cc(-c3noc(CCC4CCCC4)n3)c2c1 [Compound P-0833] | ≤ 10
COC(=O)c1cccc(C#Cc2c[nH]c3ncc(-c4ccc(OC)c(OC)c4)cc23)c1 [Compound P-0646] | ≤ 10
O=C(c1cc([N+](=O)[O-])ccc1Cl)c1c[nH]c2ncccc12 [Compound P-0592] | ≤ 10
COc1ccc(-c2c[nH]c3ncccc23)cc1OCc1ccccc1 [Compound P-0886] | ≤ 10
CC(C)Oc1cccc(Nc2cnc3[nH]ccc3c2)c1 [Compound P-1049] | ≤ 10
OCc1cccc(-c2ccnc3[nH]cc(Sc4ccc(Cl)cc4)c23)c1 [Compound P-0388] | ≤ 10
Cc1cc(C)cc(-c2ccnc3[nH]cc(Sc4cccs4)c23)c1 [Compound P-0255] | ≤ 10
Cn1nc(C(C)(C)C)cc1-c1nc(-c2c[nH]c3ncccc23)no1 [Compound P-1177] | ≤ 10
COc1ccc(S(=O)(=O)Nc2ccc(F)c(C(=O)c3c[nH]c4ncccc34)c2F)cc1OC [Compound P-1090, N-[2,4-Difluoro-3-(1H-pyrrolo[2,3-b]pyridine-3-carbonyl)-phenyl]-3,4-dimethoxy-benzenesulfonamide] | ≤ 10
Fc1ccc(Nc2cnc3[nH]ccc3c2)cc1 [Compound P-1091] | ≤ 10
O=[N+]([O-])c1cccc(Sc2c[nH]c3nccc(-c4cc(F)cc(F)c4)c23)c1 [Compound P-0816] | ≤ 10
CCC(C)c1ccc(Nc2cnc3[nH]ccc3c2)cc1 (stereo not drawn) [Compound P-1128] | ≤ 10
O=C(Nc1ccc(Cc2c[nH]c3ncccc23)cc1)c1ccccc1 [Compound P-0803] | ≤ 10
COC(c1ccc(Br)cc1)c1c[nH]c2ncccc12 (stereo not drawn) [Compound P-0552] | ≤ 10
Cn1ccc2cc(-c3c[nH]c4ncccc34)ccc21 [Compound P-0713] | ≤ 10
FC(F)(F)c1ccc(-c2c[nH]c3ncccc23)cc1 [Compound P-1179] | ≤ 10

Next, values leading:

IC50 [µM] | SMILES
≤ 10 | COc1cnc2[nH]cc(C(O)c3c(F)ccc(NS(=O)(=O)c4ccc(C(F)(F)F)cc4)c3F)c2c1 (stereo not drawn) [Compound P-1540]
≤ 10 | COC(c1ccc(N(Cc2ccc(Cl)cc2)C(=O)OC(C)(C)C)nc1)c1c[nH]c2ncccc12 (stereo not drawn) [Compound P-1183]
≤ 10 | CN(C)S(=O)(=O)N(C)c1ccc(F)c(C(=O)c2c[nH]c3ncc(Cl)cc23)c1F [Compound P-1666]
≤ 10 | CC(C)(C)c1ccc(OCc2nc(-c3ccnc4[nH]ccc34)no2)cc1 [Compound P-1187]
≤ 10 | CCCCN(c1ccc(F)c(Cc2c[nH]c3ncc(-c4cccnc4)cc23)c1F)S(=O)(=O)c1ccc(C(F)(F)F)cc1 [Compound P-1444]
≤ 10 | Oc1ccc(F)c(C(O)c2c[nH]c3ncc(Br)cc23)c1F (stereo not drawn) [Compound P-1180, 3-[(5-Bromo-1H-pyrrolo[2,3-b]pyridin-3-yl)-hydroxy-methyl]-2,4-difluoro-phenol]
≤ 10 | CCCS(=O)(=O)Nc1cccc(C(O)c2c[nH]c3ncc(Br)cc23)c1C (stereo not drawn) [Compound P-1607]
≤ 10 | CC(C)(C)OC(=O)Nc1ccc(-c2c[nH]c3ncccc23)cc1 [Compound P-1195]
≤ 10 | O=C(c1c(F)ccc(NS(=O)(=O)c2ccc(-c3cnco3)cc2)c1F)c1c[nH]c2ncc(Cl)cc12 [Compound P-1843, N-[3-(5-Chloro-1H-pyrrolo[2,3-b]pyridine-3-carbonyl)-2,4-difluoro-phenyl]-4-oxazol-5-yl-benzenesulfonamide]
≤ 10 | N#Cc1ccc(CCc2c[nH]c3ncccc23)cc1 [Compound P-1199]

These compounds were tested against T2, FGFR1 (Homo sapiens, UniProt P11362, C488A/C584S) (assay: AlphaScreen kinase assay, FGFR1). Settings: read-out: IC50, activity toward kinase FGFR.
T2 construct: P1351.pET N6 BI-PTP FGFR A458-E765-X C488A, C584S; made in house; host or cells: E. coli (PTP1B co-expressed)
Format: biochemical

T2 sequence (P11362 458-765 C488A/C584S): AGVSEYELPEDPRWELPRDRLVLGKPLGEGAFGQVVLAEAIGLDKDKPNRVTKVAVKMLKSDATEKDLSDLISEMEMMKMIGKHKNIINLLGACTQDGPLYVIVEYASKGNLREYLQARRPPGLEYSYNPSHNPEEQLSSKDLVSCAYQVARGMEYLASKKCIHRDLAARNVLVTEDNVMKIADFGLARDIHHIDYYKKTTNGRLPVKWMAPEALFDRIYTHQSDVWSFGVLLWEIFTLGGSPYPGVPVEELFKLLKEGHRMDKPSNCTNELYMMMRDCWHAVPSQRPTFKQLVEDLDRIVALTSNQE

SMILES | IC50 [µM]
CC(C)Nc1ccc(C(=O)c2c[nH]c3ncccc23)cn1 [Compound P-0227] | ≤ 10
CC(C)(C)c1ccc(Cc2c[nH]c3ncccc23)cc1 [Compound P-0828] | ≤ 10
c1ccc2cc(Cc3c[nH]c4ncccc34)ccc2c1 [Compound P-0575] | ≤ 10
COc1cccc(Cc2c[nH]c3ncc(-c4ccc(C(=O)C(F)(F)F)[nH]4)cc23)c1 [Compound P-0309] | ≤ 10
O=C(c1ccc2ccccc2n1)c1c[nH]c2ncccc12 [Compound P-0479] | ≤ 10
O=C(c1cccc(Cl)c1Cl)c1c[nH]c2ncc(Br)cc12 [Compound P-0294] | ≤ 10
O=C(c1cccc([N+](=O)[O-])c1)c1c[nH]c2ncccc12 [Compound P-0219] | ≤ 10
c1cnc2[nH]cc(Cc3ccc(NCC4CC4)nc3)c2c1 [Compound P-0400] | ≤ 10
COc1cccc(Cc2c[nH]c3nccc(-c4cccc(OC)c4)c23)c1 [Compound P-0979] | ≤ 10

Results, then the compound that gave them:

IC50 [µM] | SMILES
≤ 10 | COc1cnc2[nH]cc(C(=O)c3c(F)ccc(OCc4ccccc4)c3F)c2c1 [Compound P-1597, (3-Benzyloxy-2,6-difluoro-phenyl)-(5-methoxy-1H-pyrrolo[2,3-b]pyridin-3-yl)-methanone]
≤ 10 | O=C(c1c[nH]c2ncc(Br)cc12)c1cccc2c1ccn2S(=O)(=O)c1ccccc1 [Compound P-1524, (1-Benzenesulfonyl-1H-indol-4-yl)(5-bromo-1H-pyrrolo[2,3-b]pyridin-3-yl)-methanone]
≤ 10 | CCCNS(=O)(=O)c1ccc(NCC)c(C(=O)c2c[nH]c3ncccc23)c1F [Compound P-1273]
≤ 10 | Fc1ccc(OCc2ccccc2)c(F)c1Cc1c[nH]c2ncc(-c3cccnc3)cc12 [Compound P-1455, 3-(3-Benzyloxy-2,6-difluoro-benzyl)-5-pyridin-3-yl-1H-pyrrolo[2,3-b]pyridine]
≤ 10 | COCCOc1ccc(F)c(C(=O)c2c[nH]c3ncc(Br)cc23)c1F [Compound P-1453, (5-Bromo-1H-pyrrolo[2,3-b]pyridin-3-yl)-[2,6-difluoro-3-(2-methoxy-ethoxy)-phenyl]-methanone]
≤ 10 | Cc1ccc(F)c(C(=O)c2c[nH]c3ncccc23)c1F [Compound P-1274]
≤ 10 | COc1ccc(Cc2c[nH]c3ncc(Br)cc23)c(F)c1 [Compound P-1322]
